In patent US6689807B1, “HMG CoA reductase inhibitors for promoting angiogenesis” (priority 2000, dated 2004):

Key:
[1] = tested on: Akt; assay: Akt serine 473 phosphorylation, western immunoblot in HUVEC; type: cell-based, human
[2] = tested on: tumor-induced blood-vessel formation; details: mouse model of tumor-cell induced angiogenesis; cited from earlier work
[3] = tested on: HUVEC; assay: Apoptosis assays in serum-free HUVEC (Annexin-V/propidium iodide, Hoechst 33342 pyknotic nuclei); type: cell-based, human; details: serum-free media
Protocol: HUVEC cultures were plated on chamber slides at a density of 4×10^4 cells/well. […] Parallel cultures were infected with an adenoviral construct expressing dominant-negative Akt (dnAKT) 24 hours prior to the change to serum-free media.
Data are shown as the mean ±S.E.M. (n=4-6, *p<0.05).
Fluorescence-labeled Annexin-V-FLUOS staining of HUVEC was performed according to manufacturer's instructions (Roche Molecular Biochemicals). Briefly, cells were plated on to chamber slides (Nunc) and placed in EBM for 3 hours. […] For detection of pyknotic nuclei, cells were stained with Hoechst 33342. […] Infection with adenovirus encoding dominant-negative Aktl was initiated 24 hours prior to incubation in EBM media.

[4] = tested on: VEGF; details: cultured primary endothelial cells; cited from earlier work
[5] = tested on: bovine aortic endothelial cells; assay: NO release from endothelial cells (chemiluminescence); type: cell-based; details: BAEC
Protocol: Nitric oxide release was measured in the cell supernatant by chemiluminescent detection of […] (NO2^−), the stable breakdown product of NO. […] In some samples, wortmannin was added 1 hour prior to stimulation. Cell supernatants were collected, deproteinized, and refluxed in glacial acetic acid containing sodium iodide. Processed specimens were measured with a NO analyzer (Sievers).

[6] = tested on: ischemic hindlimb; assay: Limb revascularization studies after unilateral femoral artery resection; type: in vivo; details: rabbit, simvastatin 0.1 mg/kg daily i.p., 40 days
Protocol: Male New Zealand white rabbits weighing 3.0 to 3.5 kg were utilized to examine the effects of Akt-signaling and simvastatin-mediated stimulation of vessel growth. For the infusion model, the left femoral artery and major side branches were excised from their proximal origin to within 2 cm of the bifurcation into the saphenous and popliteal arteries. After 10 days, to permit postoperative recovery, the distal femoral artery was re-exposed and, after temporary clamping inflow veins, 50 ml of saline, saline with 3.5×10^10 viral particles of Ad-βgal, or saline with 3.5×10^10 viral particles of Ad-myrAkt was infused via the distal femoral artery and incubated for 15 minutes. […] The remainder of the animals (n=6 per experimental group) were analyzed for limb revascularization at 31 days after femoral artery resection. […] Animals in these groups (n=6 each) were analyzed for limb revascularization 40 days after surgery. Calf blood pressure was measured in both limbs by Doppler flow meter (model 1059, Parks Medical Electronics, Aloha, Oreg.). […] Collateral arteries were evaluated by internal iliac angiography. […] Nonionic contrast media (Isovue-370, Squibb Diagnostics, New Brunswick, N.J.) was injected at a rate of 1 ml/sec and serial images of the ischemic hindlimb were recorded at a rate of 1 film/sec for 10 seconds. […] Angiographic luminal diameter (d) was determined from the angiograms. […]

[7] = tested on: eNOS; assay: Phosphorylation of endogenous eNOS in vivo (32P-orthophosphate labelled HUVEC); type: cell-based, human; details: simvastatin 1 μM or VEGF 100 ng/ml, 30 min
Protocol: Alternatively, HUVEC were infected with adenovirus expressing constitutively-active Akt (myrAkt) 24 hours prior to radiolabeling and assayed for endogenous eNOS phosphorylation in the absence of Akt agonist. […] Endogenous eNOS protein was immunoprecipitated, separated by SDS-PAGE, and its phosphorylation was visualized by autoradiography. c, COS-7 cells co-transfected with eNOS (wt: wildtype eNOS, S1179A: serine 1179 mutant) and Akt (HA-Akt) expression plasmids. […] Immunoprecipitates of wild-type or mutant eNOS were examined for ^32P-phosphate incorporation by autoradiography following SDS-PAGE.
The lysate was subjected to immunoprecipitation using mouse monoclonal anti-eNOS antibody (Transduction Laboratories). Radiolabeled phosphate incorporation into each protein was visualized after SDS-PAGE (7.5%) by autoradiography.

Q: For `O=c1cc(N2CCOCC2)oc2c(-c3ccccc3)cccc12` [LY294002], which “total Akt or eNOS protein levels” value ([1]; HUVEC) is on record?
A: no effect

Q: Which tumor-induced blood-vessel formation [2] does the source give for `CC[C@H](C)C(=O)O[C@H]1C[C@@H](C)C=C2C=C[C@H](C)[C@H](CC[C@@H]3C[C@@H](O)CC(=O)O3)[C@H]21` [lovastatin] here?
A: no angiostatic effects

Q: Which results are given for `CC(O)(CCO)CC(=O)O` [mevalonate, L-mevalonate]?
A: total Akt or eNOS protein levels ([1]; HUVEC): no effect; effect on simvastatin-induced Akt phosphorylation ([1]; HUVEC pretreated 1 hour (mevalonate 200 μM, wortmannin 500 nM, LY294002 10 μM), then 1 μM simvastatin 30 minutes): blocked; effect on VEGF-induced Akt phosphorylation ([1]; HUVEC, mevalonate 200 μM, 100 ng/ml VEGF): no effect; effect on VEGF-induced endothelial cell survival [3]: no effect; effect on statin-induced endothelial cell survival [3]: blocked; effect on survival in the absence of statin or VEGF stimulation [3]: no detectable effect

Q: Which “induction of VEGF expression” value [4] does the source give for `CC[C@H](C)C(=O)O[C@H]1CCC=C2C=C[C@H](C)[C@H](CC[C@@H]3C[C@@H](O)CC(=O)O3)[C@H]21` [mevastatin] here?
A: completely blocked

Q: Which NO release ([5]; simvastatin 1 hour) does the source give for `CCC(C)(C)C(=O)O[C@H]1C[C@@H](C)C=C2C=C[C@H](C)[C@H](CC[C@@H]3C[C@@H](O)CC(=O)O3)[C@H]21` [simvastatin] here?
A: 0.48±0.07 nmol NO2^−/ml

Q: And the “capillary density in adductor muscle” value [6]?
A: 253±23 capillaries/mm^2

Q: What about the Doppler flow ([6]; maximal flow after papaverine) of the same compound?
A: 46.6 ± 3.0 mL/min

Q: And the “simvastatin concentration at which maximal Akt phosphorylation occurs” value ([1]; HUVEC, serine 473, within 30 minutes)?
A: 1.0 µM

Q: With `COC[C@H]1OC(=O)c2coc3c2[C@@]1(C)C1=C(C3=O)[C@@H]2CCC(=O)[C@@]2(C)C[C@H]1OC(C)=O` [wortmannin] as the compound, how does the “simvastatin-stimulated NO release with wortmannin treatment” value ([5]; wortmannin added 1 hour prior to simvastatin) read?
A: 0.26±0.05 nmol NO2^−/ml

Q: What about the “basal NO synthesis with wortmannin treatment” value ([5]; wortmannin, no simvastatin) of the same compound?
A: 0.29±0.07 nmol NO2^−/ml

Q: And the “total Akt or eNOS protein levels” value ([1]; HUVEC)?
A: no effect

Q: For TNF-α, which tumor-induced blood-vessel formation [2] is on record?
A: no angiostatic effects

Q: Which “Akt serine 473 phosphorylation” value ([1]; HUVEC, simvastatin within 30 minutes, VEGF 100 ng/ml) does the source give for VEGF here?
A: robust activation

Q: And the “phosphate incorporation in endogenous eNOS” value [7]?
A: increase
